Experimental data as given in patent publication US10653138B2, “Composition for attracting bed bugs” (London School of Hygiene & Tropical Medicine, priority 2015, dated 2020).

Key:
bed bugs [1] = experiment: Behavioural bioassay, dose responses of individual chemicals (Example 8); format: in vivo, Cimex lectularius; details: all doses 0.008× to 8000×
Method: Methods: The behavioural bioassay was as described by Weeks et al. 2011 and recorded using EthoVision and the methodology described by Weeks et al. 2013. For each chemical, (E)-2-octenal, (RS)-1-octen-3-ol and nonanal, seven doses were tested from 0.008× to 8000×, along with three controls. Each replicate was completed as a block of 10 treatments including: We are referring here to either 0.001×, 0.01×, 0.1×, 1×, 10×, 100× or 1000× the dose of (E)-2-octenal found naturally in the aggregation pheromone. For instance, an “8% solution” refers to an 8% dose of volatile extract (with the various different ratios of individual component). In each block the order of the treatments and the position of the odour pot were randomized. 10 blocks were completed for each chemical (n=10).

bed bug antennae = experiment: Coupled gas chromatography-electroantennography (GC-EAG) of volatile extract from bed bug-exposed paper; design: species or system Cimex lectularius; details: for Responses Total: males plus females, 20 insects tested; for Responses Females: number of females giving an EAG response to the peak; for Responses Females / Responses Males: volatile extract 1 μL; for Responses Males: number of males giving an EAG response to the peak; for electroantennogram (EAG) response: result in words; for Visual inspection (no of responses) >5 / Visual inspection (no of responses) >10 / Visual inspection (no of responses) >15: threshold of individuals responding; for Visual inspection (no of responses) Response: total EAG responses, Table 8; for Electrophysiology Auto method: bullet = marked under the Auto method
Description: Experimental insects, unless otherwise stated, were mated males and females of C. lectularius that had been fed 7 to 14 days previously on heparinised sheep blood. The electrodes used to make recordings were Ag/AgCl wires (diameter 0.37 mm) inserted into glass pipettes, made from borosilicate glass capillaries (outer diameter 2.0 mm; inner diameter 1.16 mm). The glass pipettes were filled with Ringers solution (7.55 g NaCl, 0.64 g KCl, 0.22 g CaCl2, 1.73 g MgCl2 g, 0.86 g NaHCO3 and 0.61 g Na3PO4 L^−1 water). The bed bug was then chilled on ice for one minute before dissection. Preparations were held in a continuous, humidified, charcoal filtered air flow ([…]) coming from a glass tube, which was positioned 5 mm from the antennal preparation. Once the antennal preparation and EAG equipment were in position the microscope light was switched off.
The GC used was a HP-680N, containing a HP-1 column (30 m×0.32 mm; film thickness, 0.52 μm) with a COC injector, hydrogen carrier gas and a FID. The oven temperature was maintained at 40° C. for two min and then programmed at 5° C. min^−1 to 100° C. and then at 10° C. […] to 250° C. The end of the column was inserted into the centre of the main air flow so that the eluent went over the antennal preparation. […] Amplification of the signals was set at ×10,000. Signals were analysed using the computer-based software package, EAD 2000 (Syntech®, The Netherlands). The volatile extract (1 μL) from an air entrainment of bed bug-exposed papers (see Example 1) was injected onto the column. A solution of n-alkanes (C7-C25, 1 μL of 100 ng μL^−1) in hexane was also analysed to calculate the retention indices (RI) of any EAG-active peaks for comparison with GC and coupled GC-MS traces (Equation 1).
Electroantennographic (EAG) responses from the coupled gas chromatography-electroantennographic (GC-EAG) analysis of the volatile extract collected using air entrainment were determined by visual appearance. Coupled GC-EAG traces were examined visually on a light box to identify EAG responses and match them to peaks on the GC traces. A combination of characteristics including the amplitude and shape of the deflection from the baseline were used to identify EAG responses. For example, an EAG response is usually of greater amplitude than the background noise and it has a characteristic negative deflection followed by a quick positive deflection resulting in a short sharp response often of similar shape and position as the corresponding peak on the GC trace. Responses were matched between males and females separately onto master traces for each sex. The EAG-active peaks were labelled from 1 to 21. Male and female master traces were then overlaid to identify where consistent responses occurred in both sexes. Five or more individuals responding at the same retention time on the GC trace was considered to be a consistent EAG response and the corresponding peak on the GC trace was considered to be EAG-active. Three thresholds were used: greater than 5, greater than 10 or greater than 15 individuals responding to the same GC peak or at the same retention time. The traces were then subjected to manual or automated statistical analysis.

bed bugs [2] = details: cited from earlier work; for attraction of bed bugs to safe shelters: volatile components of aggregation pheromone

SMILES	time spent above the odour pot compared to zero (bed bugs [1])	Responses Total (bed bug antennae)	Responses Females (bed bug antennae)	Responses Males (bed bug antennae)	electroantennogram (EAG) response (bed bug antennae)	Visual inspection (no of responses) >5 (bed bug antennae)	Visual inspection (no of responses) >10 (bed bug antennae)	Visual inspection (no of responses) Response (bed bug antennae)	Electrophysiology Auto method (bed bug antennae)	Visual inspection (no of responses) >15 (bed bug antennae)	attraction of bed bugs to safe shelters (bed bugs [2])	arrestment of bed bugs (bed bugs [2]; less-volatile component)
C=CC(O)CCCCC (racemic) [(RS)-1-Octen-3-ol, (RS)-1-octen-3-ol]	none of the (RS)-1-octen-3-ol doses resulted in significantly more	11	7	4	EAG-active	• (>5)	• (>10)	11	–	–	–	–
CC1=CCC2C(C1)C2(C)C (single isomer, unassigned) [3-Carene, 3-carene]	–	11	7	4	EAG-active	• (>5)	• (>10)	11	–	–	–	–
CC/C=C/C=C/C(C)=O (single isomer, unassigned) [(3E,5E)-Octadien-2-one, (3E,5E)-octadien-2-one]	–	13	5	8	EAG-active	• (>5)	• (>10)	13	•	–	–	–
O=Cc1ccccc1 (single isomer, unassigned) [Benzaldehyde, benzaldehyde]	–	8	3	5	EAG-active	• (>5)	–	8	–	–	–	–
CCCCCCC=O (single isomer, unassigned) [Heptanal, heptanal]	–	13	7	6	EAG-active	• (>5)	• (>10)	13	•	–	–	–
CCCCCC=O (single isomer, unassigned) [Hexanal, hexanal]	–	9	4	5	EAG-active	• (>5)	–	9	–	–	–	–
CCCCCCCC=O (single isomer, unassigned) [Octanal, octanal]	–	19	10	9	EAG-active	• (>5)	• (>10)	19	•	• (>15)	–	–
C=C1C=CC(C(C)C)CC1 (single isomer, unassigned) [β-Phellandrene, β-phellandrene]	–	11	6	5	EAG-active	• (>5)	• (>10)	11	–	–	–	–
CCCCOCCOCCOC(C)=O [2-(2-Butoxyethoxy)-acetate ethanol, 2-(2-butoxyethoxy)ethyl acetate]	–	12	5	7	EAG-active	• (>5)	• (>10)	12	–	–	–	–
CCCCCCCCC(C)=O [2-Decanone, 2-decanone]	–	9	4	5	EAG-active	• (>5)	–	9	–	–	–	–
CCCCC(C)=O [2-hexanone]	–	–	–	–	–	–	–	–	–	–	attract bed bugs to safe shelters	–
CCCCCC/C=C/C=O [(E)-2-Nonenal, (E)-2-nonenal]	–	13	8	5	EAG-active	• (>5)	• (>10)	13	•	–	–	–
CCCCCCCC/C=C/C=O [(E)-2-Undecenal, (E)-2-undecenal]	–	9	5	4	EAG-active	• (>5)	–	9	–	–	–	–
CCC/C=C/C=O [(E)-2-hexenal]	–	–	–	–	–	–	–	–	–	–	attract bed bugs to safe shelters	–
C=C1/C=C/[C@H](C(C)C)CC/C(C)=C/CC1 [(S)-(−)-Germacrene D, (S)-(−)-germacrene D]	–	14	7	7	EAG-active	• (>5)	• (>10)	14	–	–	–	–
CCCCCCCCCC=O [Decanal, decanal]	–	12	5	7	EAG-active	• (>5)	• (>10)	12	–	–	–	–
CCCCCCCCCCCC [Dodecane, dodecane]	–	16	8	8	EAG-active	• (>5)	• (>10)	16	•	• (>15)	–	–
CCCCCCCCC(=O)O [Nonanoic acid, nonanoic acid]	–	12	6	6	EAG-active	• (>5)	• (>10)	12	–	–	–	–
CSSC [dimethyl disulfide]	–	–	–	–	–	–	–	–	–	–	attract bed bugs to safe shelters	–
CSSSC [dimethyl trisulfide]	–	–	–	–	–	–	–	–	–	–	attract bed bugs to safe shelters	–
NCCc1c[nH]cn1 [histamine]	–	–	–	–	–	–	–	–	–	–	–	causes their arrestment upon contact
